According to paper PMC9164157, “Characterization and Identification of a New Daidzein Reductase Involved in (S)-Equol Biosynthesis in Clostridium sp. ZJ6” (Frontiers in Microbiology, 2022):

Key:
Lac 20_92 DZNR = molecular target: T1, Lac 20_92 DZNR (Lactococcus garvieae, UniProt E1CIA4); test: daidzein reductase assay, HPLC; assay type: biochemical; conditions: NAD(P)H, anaerobic, 37°C
T1 construct: gene l-dznr; synthetic gene in pETDuet-1, expressed in E. coli BL21 (DE3), purified
T1 sequence (E1CIA4 1-644): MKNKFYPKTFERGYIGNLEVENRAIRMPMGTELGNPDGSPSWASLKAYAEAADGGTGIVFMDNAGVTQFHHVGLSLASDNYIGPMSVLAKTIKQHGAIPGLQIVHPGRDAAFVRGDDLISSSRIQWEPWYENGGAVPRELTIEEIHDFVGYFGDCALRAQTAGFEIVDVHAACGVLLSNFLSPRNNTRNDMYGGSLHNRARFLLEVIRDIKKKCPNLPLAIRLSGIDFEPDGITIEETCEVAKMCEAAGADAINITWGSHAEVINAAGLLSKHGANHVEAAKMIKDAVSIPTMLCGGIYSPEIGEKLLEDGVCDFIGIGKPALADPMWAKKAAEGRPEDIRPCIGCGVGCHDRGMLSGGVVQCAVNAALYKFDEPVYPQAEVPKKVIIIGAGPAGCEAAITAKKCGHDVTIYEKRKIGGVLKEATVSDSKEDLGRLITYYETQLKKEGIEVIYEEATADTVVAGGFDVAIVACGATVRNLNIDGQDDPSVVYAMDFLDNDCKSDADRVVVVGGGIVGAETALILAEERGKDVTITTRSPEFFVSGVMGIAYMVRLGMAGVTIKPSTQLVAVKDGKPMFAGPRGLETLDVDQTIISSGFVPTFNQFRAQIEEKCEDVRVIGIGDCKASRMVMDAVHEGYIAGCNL

NATTS DZNR = molecular target: T2, NATTS DZNR (Slackia sp. NATTS, UniProt H3JUE4); test: daidzein reductase assay, HPLC; assay type: biochemical; conditions: NAD(P)H, anaerobic
T2 construct: gene ddce; synthetic gene in pETDuet-1, expressed in E. coli BL21 (DE3), purified
T2 sequence (H3JUE4 1-644): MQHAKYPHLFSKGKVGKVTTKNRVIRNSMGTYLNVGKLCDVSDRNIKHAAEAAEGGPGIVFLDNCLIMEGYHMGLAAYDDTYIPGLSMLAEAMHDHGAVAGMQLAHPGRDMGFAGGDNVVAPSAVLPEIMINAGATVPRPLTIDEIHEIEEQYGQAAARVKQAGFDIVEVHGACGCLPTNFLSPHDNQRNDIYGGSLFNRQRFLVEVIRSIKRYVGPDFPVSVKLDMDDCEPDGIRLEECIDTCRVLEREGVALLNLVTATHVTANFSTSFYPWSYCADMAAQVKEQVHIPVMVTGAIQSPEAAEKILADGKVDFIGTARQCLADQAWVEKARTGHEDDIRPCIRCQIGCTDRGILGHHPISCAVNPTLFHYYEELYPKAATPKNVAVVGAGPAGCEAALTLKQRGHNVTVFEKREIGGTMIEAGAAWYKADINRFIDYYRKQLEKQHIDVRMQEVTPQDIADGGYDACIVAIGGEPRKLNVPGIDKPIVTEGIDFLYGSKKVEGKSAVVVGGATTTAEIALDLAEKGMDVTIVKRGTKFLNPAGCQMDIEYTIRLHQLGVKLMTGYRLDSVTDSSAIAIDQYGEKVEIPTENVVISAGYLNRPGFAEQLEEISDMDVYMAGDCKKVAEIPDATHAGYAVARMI

O=c1c(-c2ccc(O)cc2)coc2cc(O)ccc12 [daidzein, 7-hydroxy-3-(4-hydroxyphenyl)-4H-chromen-4-one]
daidzein reductase assay, HPLC (Lac 20_92 DZNR): all recombinant proteins showed DZNR activity, which is an ability to convert DZN to DHD | daidzein reductase assay, HPLC (NATTS DZNR): all recombinant proteins showed DZNR activity, which is an ability to convert DZN to DHD
